Test results: ChEMBL document CHEMBL5385857, “Optimization and SAR research at the benzoxazole and tetrazole rings of JNJ4796 as new anti-influenza A virus agents, part 2” (Eur J Med Chem, 2023)

Experiments:
Influenza A virus = experiment: Antiviral activity against oseltamivir-resistant influenza A virus H1N1 clinical isolate IAV/Tianjin Jinnan/15/2009 infected in MDCK cells; assay type: functional, organism-based; settings: H1N1(IAV/Tianjin Jinnan/15/2009)
[1] = Selectivity index, ratio of CC50 for MDCK cells to IC50 for oseltamivir-resistant influenza A virus H1N1 clinical isolate IAV/Tianjin Jinnan/15/2009 infected in MDCK cells; assay type: toxicity, cell-based; settings: dog, read-out: Ratio CC50/IC50

Structure (SMILES) | IC50 (Influenza A virus) [nM] | selectivity ratio [1]
CC(=O)Nc1ccc2oc(-c3ccnc(C(=O)N4CCN([C@H](c5ccc(F)cc5)c5nnn(C6CCCC6)n5)CC4)c3)nc2c1 | 440 | 198
CC(=O)Nc1ccc2oc(-c3ccnc(C(=O)N4CCN([C@@H](c5ccccc5)c5nnn(C(C)C)n5)CC4)c3)nc2c1 | 1510 | > 66
CCCCn1nnc([C@@H](c2ccc(F)cc2)N2CCN(C(=O)c3cc(-c4nc5cc(NC(C)=O)ccc5o4)ccn3)CC2)n1 | 220 | > 454
CCCCn1nnc([C@H](c2ccc(F)cc2)N2CCN(C(=O)c3cc(-c4nc5cc(NC(C)=O)ccc5o4)ccn3)CC2)n1 | 4850 | > 20
CC(=O)Nc1ccc2oc(-c3ccnc(C(=O)N4CCN([C@H](c5ccc(F)cc5)c5nnn(C(C)C)n5)CC4)c3)nc2c1 | 70 | > 1430
CC(=O)Nc1ccc2oc(-c3ccnc(C(=O)N4CCN([C@@H](c5ccc(F)cc5)c5nnn(CCC(C)C)n5)CC4)c3)nc2c1 | 11700 | > 8
C=Cn1nnc([C@@H](c2ccc(F)cc2)N2CCN(C(=O)c3cc(-c4nc5cc(NC(C)=O)ccc5o4)ccn3)CC2)n1 | 90 | > 196
CC(=O)Nc1ccc2oc(-c3ccnc(C(=O)N4CCN([C@H](c5ccccc5)c5nnn(C(C)C)n5)CC4)c3)nc2c1 | 70 | > 1430
CCC(CC)n1nnc([C@H](c2ccc(F)cc2)N2CCN(C(=O)c3cc(-c4nc5cc(NC(C)=O)ccc5o4)ccn3)CC2)n1 | 960 | > 104
CC(=O)Nc1ccc2oc(-c3ccnc(C(=O)N4CCN([C@@H](c5ccc(F)cc5)c5nnn(C(C)C)n5)CC4)c3)nc2c1 | 2290 | > 43
CC(=O)Nc1ccc2oc(-c3ccnc(C(=O)N4CCN([C@@H](c5ccc(F)cc5)c5nnn(C6CCCC6)n5)CC4)c3)nc2c1 | 2460 | 39
CCC(CC)n1nnc([C@@H](c2ccc(F)cc2)N2CCN(C(=O)c3cc(-c4nc5cc(NC(C)=O)ccc5o4)ccn3)CC2)n1 | 220 | > 454
C=Cn1nnc([C@H](c2ccc(F)cc2)N2CCN(C(=O)c3cc(-c4nc5cc(NC(C)=O)ccc5o4)ccn3)CC2)n1 | 6860 | > 14.5
CC(=O)Nc1ccc2oc(-c3ccnc(C(=O)N4CCN([C@H](c5ccc(F)cc5)c5nnn(CCC(C)C)n5)CC4)c3)nc2c1 | 730 | > 136
